One test has as its target T1, human RORγt LBD (Homo sapiens, UniProt P51449).
T1 construct: expressed in transfected cells; host or cells: HEK293T
T1 sequence (P51449 258-518): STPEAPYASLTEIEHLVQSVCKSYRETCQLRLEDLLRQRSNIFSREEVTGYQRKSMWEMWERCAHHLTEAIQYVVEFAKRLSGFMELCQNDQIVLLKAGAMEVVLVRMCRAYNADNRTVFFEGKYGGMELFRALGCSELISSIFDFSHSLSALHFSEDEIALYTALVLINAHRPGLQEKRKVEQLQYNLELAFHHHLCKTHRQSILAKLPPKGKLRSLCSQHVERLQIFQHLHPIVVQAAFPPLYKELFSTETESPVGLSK
Briefly: RORγt reporter assay (GAL4-RORγt LBD luciferase, HEK293T cells). As to conditions: for IC50 / RORγt reporter Assay, % inhibition @ 6 μM: HEK293T cells; for IC50: 24 hours compound treatment, firefly/renilla luciferase ratio; for inhibition at 6 µM: HEK-293T, read-out: RORγt reporter Assay, % inhibition @ 6 μM, 6 μM compound, HEK293T cells; for RORγt reporter Assay, % inhibition @ 6 μM: 6 μM compound. The format is cell-based. The text has this: A reporter assay was used to test functional activity of RORγt modulatory compounds on transcriptional activation driven by the RORγt LBD. Cells used in the assay were co-transfected with two constructs. The first construct, pBIND-RORγt LBD, contained the wild type human RORγt LBD fused to the DNA binding domain of the GAL4 protein. The second construct, pGL4.31 (Promega Cat no. C935A), contained multiple GAL4 responsive DNA elements upstream of firefly luciferase. […] The mutant construct was called pBIND-RORγt-AF2.
The pBIND vector contains the GAL4 DNA Binding Domain (GAL4 DBD) and the renilla luciferase gene under control of the SV40 promoter. Renilla luciferase expression serves as a control for transfection efficiency and cell viability.
The reporter assay was performed by transiently transfecting HEK293T cells with 5 μg of pBIND-RORγt LBD or pBIND-RORγt LBD-AF2 and 5 μg pGL4.31 (Promega Cat no. C935A) using Fugene 6 (Invitrogen Cat no. E2691) at a 1:6 ratio of DNA:Fugene 6 in a T-75 flask in which cells were at least 80% confluent. Twenty four hours after bulk transfection, cells were plated into 96-well plates at 50,000 cells/well in phenol-red free DMEM containing 5% Lipid Reduced FCS and Pen/Strep. Six hours after plating, cells were treated with compounds for 24 hours. Media was removed and cells were lysed with 50 μL 1×Glo Lysis Buffer (Promega). Dual Glo Luciferase Reagent (50 μL/well) was then added and firefly luciferase luminescence was read on an Envision after a ten minute incubation. Finally, Stop and Glo reagent (50 IAL/well) was added and renilla luciferase luminescence was read on an Envision instrument after a ten minute incubation. To calculate the effect of compounds on RORγt activity, the ratio of firefly to renilla luciferase was determined and plotted against compound concentration. Agonist compounds increase RORγt-driven luciferase expression, and antagonist or inverse agonist compounds decrease luciferase expression.

Test [1] concerns IL-17 production by CD4 T cells. As to the kind of experiment: Human Th17 assay (IL-17 production by CD4 T cells under Th17 differentiation). As to conditions: 3 days, IL-17 in supernatant. The test is classed as cell-based. Here is the method:
The human Th17 assay tests the effect of RORγt modulatory compounds on IL-17 production by CD4 T cells under conditions which favor Th17 differentiation. Total CD4^+ T cells were isolated from the peripheral blood mononuclear cells (PBMC) of healthy donors using a CD4^+ T cell isolation kit II, following the manufacturer's instructions (Miltenyi Biotec). […] 50 μL of compound at titrated concentrations in DMSO were added into each well at final DMSO concentration at 0.2%. Cells were incubated for 1 hour, then 50 μL of Th17 cell differentiation medium was added to each well. The final concentrations of antibodies and cytokines (R&D Systems) in differentiation medium were: 3×10^6/mL anti-CD3/CD28 beads (prepared using human T cell activation/expansion kit, Miltenyi Biotec), 10 μg/mL anti-IL4, 10 μg/mL anti-IFNγ, 10 ng/mL IL1β, 10 ng/mL IL23, 50 ng/mL IL6, 3 ng/mL TGFβ and 20 U/mL IL2. Cells were cultured at 37° C. and 5% CO2 for 3 days. Supernatants were collected and the accumulated IL-17 in culture was measured by using MULTI-SPOT® Cytokine Plate following manufacture's instruction (Meso Scale Discovery). The plate was read using Sector Imager 6000, and IL-17 concentration was extrapolated from the standard curve. The IC50s were determined by GraphPad.

Test [2] concerns the target T2, human RORγt ligand binding domain (RORγt LBD) (Homo sapiens, UniProt P51449).
T2 construct: His-tag (N); TurboTEV protease cleavage site (ENLYFQG) (N); made in house; host or cells: E. coli (pHIS1, modified pET vector)
T2 sequence (P51449 with tags, fused parts or gaps): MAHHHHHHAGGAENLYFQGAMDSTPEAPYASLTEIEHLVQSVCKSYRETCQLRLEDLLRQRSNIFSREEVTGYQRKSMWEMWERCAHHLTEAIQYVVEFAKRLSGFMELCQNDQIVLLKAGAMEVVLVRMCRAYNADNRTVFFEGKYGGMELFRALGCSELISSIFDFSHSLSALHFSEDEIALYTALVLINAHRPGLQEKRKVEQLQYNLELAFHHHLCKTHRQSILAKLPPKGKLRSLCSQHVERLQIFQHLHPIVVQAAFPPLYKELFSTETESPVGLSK
As to the kind of experiment: RORγt ThermoFluor® assay (thermal shift binding). Particulars: RORγt LBD, 1,8-ANS dye, pH 7.0; Kd estimated from thermal shift. Here is the method:
This approach is applicable to a wide variety of systems, and rigorous in theoretical interpretation through quantitation of equilibrium binding constants (KD).
The shift in the melting point described as a ΔTm is proportional to the concentration and affinity of the ligand.
Protein and compound solutions are dispensed into black 384-well polypropylene PCR microplates (Abgene) and overlayed with silicone oil (1 μL, Fluka, type DC 200) to prevent evaporation.
Bar-coded assay plates are robotically loaded onto a thermostatically controlled PCR-type thermal block and then heated at a typical ramp-rate of 1° C./min for all experiments. Fluorescence was measured by continuous illumination with UV light (Hamamatsu LC6) supplied via fiber optic and filtered through a band-pass filter (380-400 nm; >6 OD cutoff). Fluorescence emission of the entire 384-well plate was detected by measuring light intensity using a CCD camera (Sensys, Roper Scientific) filtered to detect 500±25 nm, resulting in simultaneous and independent readings of all 384 wells. Images were collected at each temperature, and the sum of the pixel intensity in a given area of the assay plate was recorded versus temperature. Reference wells contained RORγt without compounds, and the assay conditions were as follows: • 0.065 mg/mL RORγt • 60 μM 1,8-ANS • 100 mM Hepes, pH 7.0 • 10 mM NaCl • 2.5 mM GSH • 0.002% Tween-20
Project compounds were arranged in a pre-dosed mother plate (Greiner Bio-one) wherein compounds are serially diluted in 100% DMSO by 1:2 from a high concentration of 10 mM over 12 columns within a series (column 12 is a reference well containing DMSO, no compound). The compounds were robotically dispensed directly into assay plates (1×=46 nL) using a Hummingbird capillary liquid handling instrument (Digilab). Following compound dispense, protein and dye in buffer was added to achieve the final assay volume of 3 μL, followed by 1 μL of silicone oil.

The structures appear in SMILES notation. Counter-ions that a name gives are not always drawn.

Consider `Cn1cncc1C(O)(c1ccc(Cl)cc1)c1ccc2nc(C(F)(F)F)c(-c3ccccc3)c(C#N)c2c1` (single isomer, unassigned) [Example 31a, 6-((4-Chlorophenyl)(hydroxy)(1-methyl-1H-imidazol-5-yl)methyl)-3-phenyl-2-(trifluoromethyl)quinoline-4-carbonitrile.TFA], for which, at human RORγt LBD, the half-inhibitory concentration (IC50) is 150 nM and the inhibition at 6 µM was found to be 102%.

As to `Cc1nc(C)c(C(O)(c2ccc3nc(Cl)c(-c4ccccc4)c(Cl)c3c2)c2cncn2C)s1` (stereo not shown) [Example 68, (2,4-Dichloro-3-phenylquinolin-6-yl)(2,4-dimethylthiazol-5-yl)(1-methyl-1H-imidazol-5-yl)methanol], the midpoint of inhibition in test [1] (72 h), the IC50, lay at 20 nM.

In test [1] (Homo sapiens, CD4+ T, 72 h), `Cc1cc(C(O)(c2ccc(C(F)(F)F)nc2)c2cncn2C)cc2c(C#N)c(-c3ccccc3)c(C#N)nc12` (single isomer, unassigned) [Example 25c, 6-(Hydroxy(1-methyl-1H-imidazol-5-yl)(6-(trifluoromethyl)pyridin-3-yl)methyl)-8-methyl-3-phenylquinoline-2,4-dicarbonitrile] came in with an IC50 of 160 nM.

`CC(=O)N1CCC(C(O)(c2cccnc2)c2ccc3nc(C(F)(F)F)c(-c4ccccc4)c(C#N)c3c2)CC1` (single isomer, unassigned) [Example 30b, 6-((1-Acetylpiperidin-4-yl)(hydroxy)(pyridin-3-yl)methyl)-3-phenyl-2-(trifluoromethyl)quinoline-4-carbonitrile]: on human RORγt LBD, the “RORγt reporter Assay, % inhibition @ 6 μM” value is given as 95%. Also, the IC50 on human RORγt LBD was 49 nM; in test [1] it was 57 nM. Also, in test [2], the Kd is 300 nM.

`COc1c(-c2ccccc2)c(Cl)nc2ccc(C(O)(c3cnnn3C)c3cnc(C)n3C)cc12` (single isomer, unassigned) [Example 40c, (2-Chloro-4-methoxy-3-phenylquinolin-6-yl)(1,2-dimethyl-1H-imidazol-5-yl)(1-methyl-1H-1,2,3-triazol-5-yl)methanol]: on human RORγt LBD, the IC50 worked out at 190 nM. Besides, in test [2], the Kd was 120 nM.

With `CC(=O)N1CCC(C(O)(c2cccnc2)c2ccc3nc(C(F)(F)F)c(-c4ccccc4)c(C#N)c3c2)CC1` (single isomer, unassigned) [Example 30c, 6-((1-Acetylpiperidin-4-yl)(hydroxy)(pyridin-3-yl)methyl)-3-phenyl-2-(trifluoromethyl)quinoline-4-carbonitrile], at human RORγt LBD, the “RORγt reporter Assay, % inhibition @ 6 μM” value is 93%. In addition, the IC50 on human RORγt LBD was determined as 140 nM; in test [1], 2200 nM. Further, in test [2], the equilibrium dissociation constant (Kd) was 9 nM.

Consider `Cn1cncc1C(O)(c1ccc(Cl)cc1)c1ccc2nc(Cl)c(-c3ccccc3)c(Cl)c2c1` (stereo not shown) [Example 65, (4-Chlorophenyl)(2,4-dichloro-3-phenylquinolin-6-yl)(1-methyl-M-imidazol-5-yl)methanol], for which 1800 nM corresponded to half-maximal inhibition in test [1] (72 h) (IC50).

For the compound `Cn1cncc1C(O)(c1ccc(Cl)cc1)c1ccc2nc(C(F)(F)F)c(-c3ccccc3)c(C#N)c2c1` (single isomer, unassigned) [Example 31b, 6-((4-Chlorophenyl)(hydroxy)(1-methyl-1H-imidazol-5-yl)methyl)-3-phenyl-2-(trifluoromethyl)quinoline-4-carbonitrile], on human RORγt LBD, the “RORγt reporter Assay, % inhibition @ 6 μM” value stood at 103% and the IC50 turned out to be 42 nM. Moreover, the Kd in test [2] is 5 nM. In test [1] (Homo sapiens, CD4+ T, 72 h), this compound came in with a 50% inhibitory concentration (IC50) of 20 nM.

Regarding `COc1nc2ccc(C(O)(c3cncn3C)C3CCN(C(C)=O)CC3)cc2c(C#N)c1-c1cccc(C(F)(F)F)c1` (single isomer, unassigned) [Example 2c, 6-((1-Acetylpiperidin-4-yl)(hydroxy)(1-methyl-1H-imidazol-5-yl)methyl)-2-methoxy-3-(3-(trifluoromethyl)phenyl)quinoline-4-carbonitrile], on human RORγt LBD, the IC50 came to 170 nM.

In the case of `CC(=O)N1CCC(C(O)(c2cccnc2)c2ccc3nc(C(F)(F)F)c(-c4ccccc4)c(C#N)c3c2)CC1` (single isomer, unassigned) [Example 30a, 6-((1-Acetylpiperidin-4-yl)(hydroxy)(pyridin-3-yl)methyl)-3-phenyl-2-(trifluoromethyl)quinoline-4-carbonitrile.TFA], on human RORγt LBD, the IC50 was 110 nM and the inhibition at 6 µM amounted to 91%. For the same compound, the Kd in test [2] is 23 nM.

Turning to `COc1c(-c2ccccc2)c(Cl)nc2ccc(C(O)(c3cnnn3C)c3cnc(C)n3C)cc12` (single isomer, unassigned) [Example 40b, (2-Chloro-4-methoxy-3-phenylquinolin-6-yl)(1,2-dimethyl-1H-imidazol-5-yl)(1-methyl-1H-1,2,3-triazol-5-yl)methanol], the IC50 on human RORγt LBD amounted to 680 nM. The Kd in test [2] was 150 nM.

As for `Cn1cncc1C(O)(c1ccc(Cl)cc1)c1ccc2nc(C(F)(F)F)c(-c3ccccc3)c(C#N)c2c1` (single isomer, unassigned) [Example 31c, 6-((4-Chlorophenyl)(hydroxy)(1-methyl-1H-imidazol-5-yl)methyl)-3-phenyl-2-(trifluoromethyl)quinoline-4-carbonitrile], at human RORγt LBD, the “RORγt reporter Assay, % inhibition @ 6 μM” value was 85% and the IC50 was found to be 1600 nM. In addition, the Kd in test [2] is 3300 nM.

The record behind these values is patent US10369146B2, “Phenyl linked quinolinyl modulators of RORγt” (Janssen Pharmaceutica NV, priority 2013, dated 2019).
